Consider one molecule from patent publication US7348178B1, “Recombinant adenoviral vector system” (priority 1994, dated 2008).

What all share (format): cell-based, human
The test system of data set [1] is wild type Ad-infected 293 cells. The data set can be described thus: Ad-induced CPE in infected 293 cells, photographed. As to conditions: wild type Ad 50 PFU per cell, 20 mM 2AP added 2 h post infection, 24 and 48 h. As for the experimental part: FIG. 5. Prevention of adenovirus induced CPE and facilitated cell lysis or loss of metabolic function during expression of late viral genes. Cells were infected at 50 PFU per cell with wild type Ad, and 20 mM 2-aminopurine (2AP) was added to duplicate plates 2 h post infection for up to 48 h. Cells were photographed at 24 and 48 h. […] Late Ad polypeptides can therefore be expressed in this system for the duration of several days without facilitating cell lysis and CPE that would limit their expression.
Ad 300 is a wild type strain 5 isolate (H5wl300) originally purified by H. Ginsberg is available through the ATCC. Ad2 ts1 is described in Chen et al., 1993, J. Virol. 67:3507-3514. 293 cells are human embryonic kidney cell line that express the E1 region of Ad5 (Graham et al., 1977, J. Gen. Virol. 36:59-72). 293 and HeLa cells were cultured in Dulbecco's modified Eagle's medium (DMEM) containing 10% calf serum. Virus stocks were grown and titers were determined on 293 cells. RD (human rhabdosarcoma) cells were obtained from the American Type Culture Collection and grown in DMEM containing 15% fetal bovine serum. 2AP was prepared and used as previously described (Huang & Schneider, 1990, PNAS USA 87:7115-7119). Infections of cells with viruses were typically carried out for 1 h with 50 PFU per cell unless otherwise noted. […]

Data set [2] has the same test system. In words: [35S]methionine labeling, SDS-PAGE: Ad shutoff of cell protein synthesis. As for the experimental part: FIG. 7. […] Uninfected and wild type Ad-infected 293 cells were labeled with [^35S]methionine at 24 h post infection and duplicate plates were treated with 10 mM 2AP, added 1 to 2 h after infection. Equal amounts of protein from labeled extracts were analyzed by SDS-polyacrylamide gel electrophoresis and fluorographed. Ad late polypeptides correspond to proteins II, III, IV, V, pIV, pVIII, pVI, and IX.
Cells were labeled with [^35S]methionine for 1 to 2 h by using 50 μCi of trans[^35S]methionine (ICN) per ml in DMEM lacking methionine and supplemented with 2% calf serum. Cell extracts were prepared by sonication of washed cells in 10 mM KC1-10 mM Tris (pH 7.4)−1 mM EDTA at 4° C. and cleared of debris by centrifugation at 10,000 rpm equal amounts of protein were analyzed in sodium dodecyl sulfate (SDS)-polyacrylamide gels. Gels were fluorographed and quantitated by densitometry.
293 cells were treated with 2AP for the duration of infection, starting shortly after the addition of virus. Duplicate plates of cells were then labeled with [^35S]methionine, and extracts were analyzed by SDS-polyacrylamide gel electrophoresis (FIG. 7) or photographed at various times after infection for evidence of CPE (see FIG. 5).

Data set [3] concerns cytokeratin network of 293 cells infected with Ad2 ts1. The data set can be described thus: Indirect immunofluorescence of keratin K18 network in Ad2 ts1-infected 293 cells. As to conditions: Ad ts1 infection at 39.5° C. plus 2AP, fixed 22 h post infection. As for the experimental part: FIG. 6. […] 293 cells were infected with Ad2 ts1 at 4,000 particles per cell, a 25 plaque forming unit (PFU) per cell equivalent, given the high particle/PFU ratio for this mutant, in the presence or absence of 2AP at 32° C. or 39.5° C. […] Cells were fixed and processed for indirect immunofluorescence, using a keratin K18-specific antibody. Cells infected at 32° C. were fixed at 40 h post infection, cells infected at 39.5° C. were fixed at 22 h post infection. By preventing Ad viral proteolysis of keratin K18, viral induced CPE and early cell lysis can be controlled.
Cells were grown on coverslips, fixed with paraformaldehyde, and permeabilized with Triton X-100. Mouse monoclonal antibodies directed against vimentin were purchased from Boehringer Mannheim Biochemicals. A mouse monoclonal antibody specific for keratins K18 (KS-B17.2) and K1, 5 to 8, 10, 11, and 18 (no. 8.13) were from Sigma Chemical Co. Fluorescein isothiocyanate-conjugated rabbit anti-mouse antibodies were purchased from Sigma. Cells were photographed under visible or ultraviolet light using a Zeiss photomicroscope.
Experiments were performed to test whether coupled shutoff of host protein synthesis and cleavage of cytokeratins truly correlates with development of CPE. […] Cells were infected with […] at permissive (32° C.) and restrictive (39.5° C.) temperatures. […]

For data set [4], the system named is uninfected 293 cells. The data set can be described thus: Drug cytotoxicity in uninfected 293 cells. The settings on record: 20 mM 2AP, 48 h posttreatment.

“Also recorded” adds a separate entry of the source.

As to `Nc1ncc2[nH]cnc2n1` [2AP, 2-aminopurine], the “Ad-induced CPE” value in data set [1] is given as “largely prevented detectable CPE; also recorded: significantly reduced cytopathic effect; also recorded: only slight CPE”. Further, in data set [2] (10 mM 2AP added 1 to 2 h after infection, labeled 24 h post infection), the “shutoff of cell protein synthesis / translation” value is “prevents the shutoff of translation of cellular and early Ad mRNAs; also recorded: prevent Ad shutoff of cell protein synthesis”. Moreover, the “levels of cellular polypeptide synthesis and of Ad mRNAs lacking the tripartite leader” value in data set [2] (2AP-treated infected 293 cells) is given as “significantly elevated”. In addition, the keratin network integrity result in data set [3] was “remarkably well preserved”. Moreover, the cytotoxicity result in data set [4] is given as “little detectable cytotoxicity”.
